Where “and” joins values, the source holds several entries; their conditions need not be identical. Equal entries are not always repeated. Peptide text beside a SMILES is read from it.

In data set [1] the test system is muscle tissue, subcutaneous connective tissue, and dermis at injection sites. As to the kind of experiment: Injection into skin, subcutaneous tissue and extremity skeletal muscle of normal rats; histopathology at 24 hours. The format is in vivo, rat. The text has this: The individual foci of infiltration were excised, fixed in 10% formalin, embedded in paraffin, and stained and examined by standard histopathological methods.
The controls received saline alone.
Tissues were excised, fixed in 10% formalin, embedded in paraffin, and stained and examined by standard histopathological methods.

Data set [2] concerns normal rodent muscle tissue, subcutaneous connective tissue, dermis; human and non-human origin tumors. The conditions noted are these: dermis and a variety of human and non-human origin tumors in rodent models; cited from earlier work.
The test system of another data set is rat prostate. The experiment in a line: Intraprostatic infusion in rats; prostate volume and histology at 72 hours. The format is in vivo, rat (Sprague-Dawley). The conditions noted are these: for prostate histology (H & E): intraprostatic infusion, rats sacrificed after 72 hours. As for the experimental part:
(§1) Male Sprague-Dawley rats (300 gram weight range) were anesthetized with ether and given NTP peptide #6 by intraprostatic infusion after open surgical visualization of the prostate. The injections consisted of 300 μl of NTP peptide #6, 1 mg/mL in PBS pH 7.4. (1.0 mg/kg) (n=8), control injections of PBS alone (n=6), and controls with no injection (n=2). Rats were painlessly sacrificed after 72 hours. Prostate glands were dissected, fixed in 10% buffered formalin for 24 hours, embedded in paraffin, sectioned, and stained with H & E. For each animal the entire prostate gland was embedded and sectioned. All stained sections were examined histologically and measured. For each prostate at least 4 histological sections were examined, and for each histological section two cross-sectional diameters (D) at 90° from each other were measured (total of ≧8 measurements per prostate). The mean diameter from these measurements for each prostate was used to estimate volume according to
as §1, with “Related Peptide #2” for “NTP peptide #6”, “Related Peptide #2,” for “NTP peptide #6,”, “>8” for “≧8”
The controls were the same as Example 1.
Normal rats were injected in the prostate as in the above Examples 1 and 4 with Related Peptide #3. Rats were painlessly sacrificed after 72 hours and their prostate glands were examined as in the above Examples 1 and 4.

With `CC[C@H](C)[C@H](NC(=O)[C@H](CCC(=O)O)NC(=O)[C@H](CC(C)C)NC(=O)[C@H](CCCCN)NC(=O)[C@@H](NC(=O)[C@H](CCCNC(=N)N)NC(=O)[C@H](CO)NC(=O)[C@@H](N)CC(C)C)[C@@H](C)CC)C(=O)N[C@@H](CCCCN)C(=O)O` [NTP peptide #7, LSRIKLEIK] (H-LSRIKLEIK-OH; N-terminus and C-terminus assumed), the “spread of necrosis beyond the site of injection” value in data set [1] is “did not appear to spread far beyond the site of injection”.

On to “AD7c-NTP: ˜41 kD neural thread protein, membrane associated phosphoprotein, SEQ ID NO. 1”, for which, in data set [2], the “causing cell death in vivo” value was “effective agent for causing cell death”.

As for “GDHGRPNLSRLKLAIKYEVKKM [Related Peptide #1]”, in data set [1] (at 0.1-1 mg/mL in saline), the “histopathology of tissue at injection sites” value is “cell death and necrosis of tissue at the injection sites”.

As for “GLLFPVFSVCYLIAPKSPLGL [Related Peptide #3]”, the “prostate histology (H & E)” value in the data set with rat prostate is “Significant cell loss and atrophy of prostate”.

For IDQQVLSRIKLEIKRCL [NTP peptide #6], the “prostate histology (H & E)” value with rat prostate was “extensive loss of glandular epithelium, flattening and atrophy”. Besides, the “reduction in prostate volume compared to controls” value in the data set with rat prostate (intraprostatic open infusion 1.0 mg/kg (300 μl, 1 mg/mL in PBS pH 7.4), 72 hours, vs untreated or PBS treated controls, estimated from mean diameters) is 45% and > 40%.

For the compound QQSIAVKFLAVFGVSI [Related Peptide #2], the “prostate histology (H & E)” value in the data set on rat prostate is “significant cell loss and atrophy in the prostate”.
